Data reported in US9943524B2, “Use of alkaloid in preparing pharmaceutical compositions for preventing or treating pulmonary fibrosis” (China Pharmaceutical University, priority 2014, dated 2018).

Columns and labels:
cough reflex pathway = conditions: in vivo; cited from earlier work
[1] = tested on: pulmonary fibrosis mice induced by bleomycin; assay: HE stained pathological evaluation and inflammation scores (Embodiment 4); assay type: in vivo, C57BL/6 mice; conditions: for lung tissue inflammation scores (HE stained, grade 0-3): 30, 60 mg/kg, prevention and treatment groups (FIG. 4), lower dose better; for pulmonary inflammation and injury, HE stained pathological changes: prevention groups and treatment groups (FIG. 3), lower dose (30 mg/kg) better than higher dose
Protocol: (§1) Female C57BL/6 mice (eight-week-old) are established for models after 7 days, the time is set for the mice to adapt to the environment. After fasts for overnight, the mice are anaesthetized by 3% chloral hydrate and fixed. Sterilize and incise neck skin longitudinally as little injury as possible. Split fascia and muscle with tweezers longitudinally and expose the windpipe. Then, about 35 μl (3.5 mg/kg) bleomycin are injected into windpipe with microinjector. Put the mice upright rapidly and rotate the mice for 3˜5 minutes, so that bleomycin is able to enter into the pulmones uniformly. Observe the breathing of mice. Sterilize neck injury with 75% alcohol tampon and stitch the wound, then 1 drop or 2 drops of benzylpenicillin injection is/are dripped into the suture. Put the mice back into dry and clean cages, and feed them normally after waking up. Operations are done on operating table at about […]. Physiological saline using in injection is injected into windpipe of sham operation group.
(§2) Model animals are divided into prevention groups and treatment groups, then drugs are given to the two groups respectively. According to internationally methods of drug administration, drugs are given continuously to the prevention groups by means of intragastric administration from the second day after successfully establishing model to the 14th day, and drugs are given continuously to treatment groups by means of intragastric administration from the 8th day after successfully establishing model to the 21th day. Groups and dosage regimen are shown in tab.1.
After the last intragastric administration, the mice are anaesthetized and killed to collect the lung tissue. Immerse the left lobule in 10% formalin, and embed it by paraffin after being fixed, then cut it into slices to observe the pathological changes by HE staining. As is shown in FIG. 3, structures of lobules of sham operation group are normal and the alveolar walls are complete without inflammation and fibrosis pathological changes. Obvious inflammation injury and masses of tissue begin to appear in lung of mice in model group, then the normal lung tissue disappears and alveolar is blocked. […] The groups with lower dose (30 mg/kg) of the 3 compounds show better effect than the groups with higher dose. The pulmonary inflammation disappears and alveolar structure is clear in groups with lower dose.
Inflammatory classification semi quantitative statistics analysis is made according to results of HE staining. Grade 0 represents normal tissue or minimal inflammation change. Grade 1 (+) represents mild to moderate inflammation change, and lung tissue without obvious damage. Grade 2 (++) represents moderate to severe inflammation injury, and alveolar septum is thickened to form masses of tissue, or lung tissue with damage caused by partial area inflammation. Grade 3 (+++) represents severe inflammation injury, and structure of restricted regions in lung tissue is severely damaged, thus resulting in obliteration. […] The groups with lower dose show better effect than the groups with higher dose. In general, the 3 compounds have better effect in decreasing the pulmonary inflammation than the positive drug pirfenidone.

[2] = tested on: pulmonary fibrosis mice induced by bleomycin; assay: Detection of the mice lung index (Embodiment 4); assay type: in vivo, C57BL/6 mice; conditions: 30 and 60 mg/kg, prevention groups and treatment groups, versus model group (FIG. 2); lower dose better in prevention groups
Protocol: as §1, §2
After the last intragastric administration, the mice are killed to strip and weigh the lung, and the lung index is the lung weight divided by mouse weight (FIG. 2). […] In general, the 3 compounds have better effect in decreasing the mortality of mice than the positive drug pirfenidone.

[3] = tested on: pulmonary fibrosis mice induced by bleomycin; assay: Masson stained pathological evaluation and imaging analysis of collagen (Embodiment 4); assay type: in vivo, C57BL/6 mice; conditions: for collagen deposition (Masson staining, integrated optical density): 30, 60 mg/kg, prevention and treatment groups (FIG. 5, 6), lower dose better in prevention, higher dose better in treatment; for effect in decreasing the collagen deposition, comparison among compounds: in general, Masson staining
Protocol: as §1, §2
Masson staining is a method aiming at specific staining of fibrillar collagen. After the last intragastric administration, the mice are anaesthetized and killed to collect the lung tissue. Immerse the left lobule in 10% formalin, and embed it by paraffin after being fixed, then is cut it into slices to observe the collagen deposition by Masson staining. Semi quantitative analysis is made by using Image-Pro Plus6.0. Integrated optical density (IOD) of collagen in each visual field is measured after Masson staining. 5 samples are studied in each group and 5 visual fields are picked out from each group. Statistics analysis is made by calculating mean value which is considered as relative amount of collagen in each group.

TGF-β1 [4] = assay: ELISA content determination of TGF-β1 in mice lung tissue (Embodiment 4); assay type: in vivo, C57BL/6 mice; conditions: for content of TGF-β1 in lung tissue (ELISA): 30 mg/kg and 60 mg/kg, prevention groups and treatment groups, versus model group (FIG. 8), lower dose more effective
Protocol: as §1, §2
TGF-β1 is a universally recognized strong pro-fibrotic cytokine. It can stimulate the cells to synthesize and secrete extracellular matrix as well as exchange the activity of matrix-degrading enzyme component and directly increase the deposition of ECM. The progress of pulmonary fibrosis can be slowed down by decreasing the content of TGF-β1 in lung tissue. Elisa test kit (which is purchased from Shanghai Excell Biological Technology Co., Ltd.) according to specification is used in the determination of TGF-β1 in mice lung tissue. Results can be seen in FIG. 8.

[5] = tested on: pulmonary fibrosis mice induced by bleomycin; assay: Determination of mice mortality (Embodiment 4); assay type: in vivo, C57BL/6 mice; conditions: for protective effect on model mice (mortality), comparison among compounds: lower dose (30 mg/kg) better
Protocol: as §1, §2
From the 0th day (the day when the model is established) to 14th day, drugs are given continuously to prevention groups. From the 8th day after successfully establishing model to 21th day, drugs are given continuously to treatment groups. Statistical analysis of death of animals in each group is carried on every day and the survival rate of animals in each group is calculated. Results are shown in tab.2.

[6] = tested on: pulmonary fibrosis mice induced by bleomycin; assay: Activity of 8 alkaloids and pentoxyverine against pulmonary fibrosis in mice (Embodiment 3); assay type: in vivo, C57BL/6 mice; conditions: intragastric from first day after model to 21th day; alkaloids and pentoxyverine 30 mg/kg (FIG. 1B, 1C)
Protocol: as §1
Experimental mice are randomly divided into 12 groups: 10 mice in model group, 10 mice in pentoxyverine group, and 5 mice in any other group. Group 1 is sham operation group, group 2 is model group, group 3 is pentoxyverine group, group 4 is positive drug pirfenidone group, groups 5-12 are compounds I-VIII administration group respectively. Models of groups 2-12 are established by using bleomycin with the same method used in embodiment 2. From the first day after successfully establishing model, 30 mg/kg pentoxyverine and 300 mg/kg pirfenidone are given to group 3 and group 4 by means of intragastric administration respectively. 30 mg/kg compounds I-VIII are given to groups 5-12 also by means of intragastric administration respectively. Besides, same doses of solvent are given to sham operation group and model group until the 21th day. After the last intragastric administration, the mice are killed to collect the lung tissue, and the right lobule is used for determining the content of hydroxyproline, while the left lobule is used for preparing pathological sections.

[7] = tested on: pulmonary fibrosis mice induced by bleomycin; assay: Content determination of hydroxyproline in lung tissue (Embodiment 4); assay type: in vivo, C57BL/6 mice; conditions: 30 mg/kg and 60 mg/kg, prevention groups and treatment groups (FIG. 7); lower dose slightly better
Protocol: as §1, §2
Hydroxyproline mainly exists in collagen protein, but there is only a very small amounts in elastin proteins and it cannot found in other proteins. Therefore the content of collagen protein can be indicated by measuring the content of hydroxyproline, so as to evaluate the degree of pulmonary fibrosis. Method of test kit (which is purchased from Nanjing Jiancheng Biological Technology Co., Ltd.) according to specification is used in determination of hydroxyproline. Results can be seen in FIG. 7.

[8] = cited from earlier work
TGF-β1 [9] = conditions: cited from earlier work
[10] = tested on: cough of guinea pig induced by citric acid; conditions: cited from earlier work
[11] = prevention groups, 30 mg/kg intragastric to the 14th day
[12] = prevention groups, 30 mg/kg intragastric to the 14th day, 10 animals
[13] = prevention groups, 60 mg/kg intragastric to the 14th day
[14] = prevention groups, 60 mg/kg intragastric to the 14th day, 10 animals
[15] = treatment groups, 30 mg/kg intragastric from the 8th to the 21th day
[16] = treatment groups, 30 mg/kg intragastric from the 8th to the 21th day, 18 animals
[17] = treatment groups, 60 mg/kg intragastric from the 8th to the 21th day
[18] = treatment groups, 60 mg/kg intragastric from the 8th to the 21th day, 18 animals

Structure (SMILES) | antitussive activities, comparison among stemona tuberosa alkaloids (cough reflex pathway) | lung tissue inflammation scores (HE stained, grade 0-3) [1] | pulmonary inflammation and injury, HE stained pathological changes [1] | lung index (lung weight divided by mouse weight) [2] | collagen deposition (Masson staining, integrated optical density) [3] | effect in decreasing the collagen deposition, comparison among compounds [3] | content of TGF-β1 in lung tissue (ELISA) (TGF-β1 [4]) | Survival rate [5, 11] [%] | Mortality (number of dead animals) [5, 12] | Survival rate [5, 13] [%] | Mortality (number of dead animals) [5, 14] | protective effect on model mice (mortality), comparison among compounds ([5]; prevention groups) | Survival rate [5, 15] [%] | Mortality (number of dead animals) [5, 16] | Survival rate [5, 17] [%] | Mortality (number of dead animals) [5, 18] | pulmonary inflammation, injury and fibrosis in HE and Masson stained pathological sections [6] | content of hydroxyproline in lung tissue [7] | further results
CC[C@@H]1[C@H]2CCCCN3[C@H]2[C@H](C[C@H]3[C@@H]2C[C@H](C)C(=O)O2)[C@@H]2[C@H]1OC(=O)[C@H]2C [Compound I, Tuberostemonine] | weaker | significantly decrease the pulmonary inflammation | significantly alleviate the pulmonary inflammation | significantly decrease the lung index | significantly decrease collagen deposition | slightly better than that of compound VIII | effectively decrease the content of TGF-β1 | 100 | 0 | 90 | 1 | more effective than compound VIII | 89 | 2 | 83 | 3 | recover to nearly normal structure | effectively decrease the content of hydroxyproline | effect on content of TGF-β1, comparison among compounds (TGF-β1 [4]; ELISA, lung tissue): slightly better than that of compound VII
Cc1ccc(=O)n(-c2ccccc2)c1 [Pirfenidone, pirfenidone, reference compound] | – | – | – | – | – | – | – | – | – | – | – | – | – | – | – | – | – | – | clinical side effects [8]: photosensitization; inhibition of pro-fibrogenic factors (TGF-β1 [9]): can inhibit the pro-fibrogenic factors such as TGF-β1; Survival rate ([5]; prevention groups, 300 mg/kg intragastric to the 14th day): 70%; Mortality (number of dead animals) ([5]; prevention groups, 300 mg/kg intragastric to the 14th day, 10 animals): 3; Survival rate ([5]; treatment groups, 300 mg/kg intragastric from the 8th to the 21th day): 67%; Mortality (number of dead animals) ([5]; treatment groups, 300 mg/kg intragastric from the 8th to the 21th day, 18 animals): 6
CC[C@@H]1[C@H]2CCCCN3[C@H]2[C@@H](C[C@H]3[C@@H]2C[C@H](C)C(=O)O2)[C@H]2[C@@H]1OC(=O)[C@H]2C [Compound VII, Neotuberostemonine] | similar | significantly decrease the pulmonary inflammation | significantly alleviate the pulmonary inflammation | significantly decrease the lung index | significantly decrease collagen deposition | slightly better than that of compound VIII | effectively decrease the content of TGF-β1 | 100 | 0 | 80 | 2 | more effective than compound VIII | 89 | 2 | 78 | 4 | recover to nearly normal structure | effectively decrease the content of hydroxyproline | antitussive effect [10]: very good antitussive effect
